Test: xn = mol fraction of the nth substance listed, in the solute-free solvent

NC(=O)NC1NC(=O)NC1=O (stereo not given) + O + CO
solubility (g/100 g solution)
Settings	288.15 K	293.15 K	298.15 K	303.15 K	308.15 K	313.15 K	318.15 K	323.15 K	328.15 K	333.15 K
x2 = 0.2	0.0735	0.0876	0.104	0.134	0.155	0.188	0.219	0.264	0.299	0.353
x2 = 0.359	0.114	0.138	0.175	0.205	0.255	0.297	0.357	0.443	0.521	0.582
x2 = 0.599	0.212	0.27	0.328	0.408	0.519	0.629	0.74	0.895	1.08	1.23
x2 = 0.771	0.239	0.328	0.424	0.526	0.694	0.866	1.06	1.28	1.55	1.94
x2 = 0.9	0.319	0.389	0.506	0.642	0.836	1.05	1.29	1.53	1.86	2.27

NC(=O)NC1NC(=O)NC1=O (stereo not given) + OCCO + CO
solubility (g/100 g solution)
Settings	288.15 K	293.15 K	298.15 K	303.15 K	308.15 K	313.15 K	318.15 K	323.15 K	328.15 K	333.15 K
x2 = 0.154	0.124	0.146	0.174	0.21	0.242	0.287	0.338	0.396	0.461	0.524
x2 = 0.326	0.188	0.22	0.268	0.336	0.395	0.438	0.508	0.566	0.651	0.732
x2 = 0.521	0.305	0.338	0.387	0.447	0.531	0.613	0.66	0.756	0.83	0.938
x2 = 0.744	0.455	0.481	0.55	0.634	0.702	0.78	0.851	1	1.09	1.25

NC(=O)NC1NC(=O)NC1=O (stereo not given) + OCCO + O
solubility (g/100 g solution)
Settings	288.15 K	293.15 K	298.15 K	303.15 K	308.15 K	313.15 K	318.15 K	323.15 K	328.15 K	333.15 K
x2 = 0.075	0.367	0.468	0.57	0.749	0.887	1.12	1.37	1.67	1.93	2.38
x2 = 0.177	0.387	0.478	0.581	0.732	0.858	1.02	1.24	1.47	1.75	2.09
x2 = 0.327	0.439	0.481	0.62	0.747	0.847	1	1.17	1.43	1.67	1.88
x2 = 0.564	0.406	0.49	0.601	0.725	0.819	0.962	1.1	1.29	1.44	1.7
x2 = 0.744	0.466	0.515	0.628	0.712	0.779	0.924	1.03	1.2	1.33	1.54

From the CheMixHub drug solubility set
